Patent US6034134A, “1-Amino-alkylcyclohexane NMDA receptor antagonists” (Merz + Co. GmbH & Co., priority 1998, dated 2000)
Where two headings read alike, the source gives them in different places.

Tests used:
[1] = test system: cortical neurones; test: Excitotoxicity: glutamate toxicity in cultured cortical neurones (MTT); assay type: cell-based, rat; details: Rattus norvegicus, Cortical neurone, 100 μM glutamate
Outline: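 Fetal Wistar rat cortical neurones (day 12-14 in culture, astrocyte-conditioned medium) exposed 20 h to 100 μM glutamate plus test drug in serum-free Neurobasal medium. Viability by MTT reduction read at 570 nm; IC50 by four-parameter logistic fit.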

[2] = Maximal electroshock (MES)-induced convulsions in mice; assay type: in vivo; details: Mus musculus, ip, 0.5 h, mice, i.p., read-out: MES ED50
Outline: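 Female NMR mice (18-28 g) received compounds in 0.9% saline, then traction reflex and rotarod (5 rpm, 1 min) tests preceded corneal MES (100 Hz, 0.5 s, 50 mA). Tonic hind-paw extension scored; ED50 values by Litchfield-Wilcoxon, therapeutic index = side-effect ED50 / anti-MES ED50.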

[3] = mouse, in vivo, ip
Description: All animals were kept with water and food ad libitum under a 12 hour light-dark cycle (light on at 6 a.m.) and at a controlled temperature (20±0.5° C.). All e experiments were performed between 10 a.m. and 5 p.m. Tested agents were injected 30 min. i.p. before the induction of convulsions if not stated otherwise (see below). All compounds were dissolved in 0.9% saline.

[4] = molecular target: NMDA receptor; test: [3H]-(+)-MK-801 binding to rat cortical membranes; details: for Ki: read-out: MK-801 Ki, Table 9, Cheng-Prusoff with Kd for MK-801 of […]; for IC50: read-out: [3H] MK-801 IC50, Table 7, footnote calls the values Ki
Outline: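 Washed cortical membranes from male Sprague-Dawley rats, 250-500 μg/ml protein, incubated in 50 mM Tris-HCl pH 8.0; bound radioligand separated by rapid glass fiber filtration and counted by liquid scintillation.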

[5] = Table 7, 20 h, read-out: Glut. Tox. IC50
[6] = Table 9, read-out: Glut Tox IC50
[7] = Table 8, 95% confidence limits in parentheses

Row | SMILES | IC50 [1, 5] [µM] | IC50 [1, 6] [µM] | ED50 ([2]; Table 7, 30 min before) [mg/kg] | ED50 [2, 7] [mg/kg] | Min Lethality [3] [mg/kg] | Ki [4] [µM] | IC50 [4] [µM]
1 | CC[C@@H]1CC(C)(C)C[C@@](C)(N)C1 (relative stereo) [Mrz 2/633] | 5.4 | 6.1 | 8.78 | 8.78 | 108 | 5.18 | 6.8
2 | CCC[C@@H]1CC(C)(C)C[C@@](C)(N)C1 (relative stereo) [Mrz 2/635] | 8.2 | 8.18 | 31.6 | 31.6 | > 50 | 15 | 7.8
